Data from patent US10118947B2, “Modulation of structured polypeptide specificity” (BICYCLE THERAPEUTICS LIMITED, priority 2013, dated 2018).
Like-named read-outs stand apart in the source and are kept apart here. Numbered stars: 1 amine (or outer) side, 2 acyl side, 3 side chain; on linkers, the order of the positions; unused ones are H or OH. Bridge positions count the residues as written; N and C are the ends. Square brackets hold non-standard residues; d marks the D form. Peptide text beside a SMILES is read from it. TBMB = c1c(C[*:1])cc(C[*:3])cc1C[*:2]; hArg = N=C(N)NCCCC[C@H](N)C(=O)O; Chg = N[C@H](C(=O)O)C1CCCCC1; Phg = N[C@H](C(=O)O)c1ccccc1; Tle = CC(C)(C)[C@H](N)C(=O)O; Aze = O=C(O)[C@@H]1CCN1

Legend:
human plasma Kallikrein = molecular target: T1, human plasma Kallikrein (Homo sapiens, UniProt P03952); test: Functional enzyme inhibition assay with fluorogenic substrate Z-PheArg-AMC, human plasma Kallikrein; type: biochemical
T1 construct: purchased Stratech, UK
How it was run: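 Human plasma kallikrein at 26.5 pM was preincubated 15 minutes with test peptide in Tris/NaCl/MgCl2/CaCl2/BSA buffer pH7.4 at 25° C, then Z-PheArg-AMC added to 100 μM final in 4% DMSO.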

rat plasma Kallikrein = molecular target: T2, rat plasma Kallikrein (Rattus norvegicus, UniProt P14272); test: Functional enzyme inhibition assay with fluorogenic substrate Z-PheArg-AMC, rat plasma Kallikrein; type: biochemical
T2 construct: polyhistidine tag (N, cleaved yes); proTEV cleavage site (pro-peptide linker) (N, cleaved yes); made in house; host or cells: HEK-293 (suspension-adapted)
Method: Functional enzyme assays were conducted in 10 mM Tris HCl, 150 mM NaCl, 10 mM MgCl2, 1 mM CaCl2) and 1 mg/mL BSA (all Sigma UK) pH7.4 at 25° C. in solid black 96 well plates. Briefly 26.5 pM human plasma Kallikrein (purchased from Stratech, UK) or 500 pM rat plasma Kallikrein (expressed and purified in house) were incubated in the absence or presence of increasing concentrations of test peptide for 15 minutes before addition of the fluorogenic substrate Z-PheArg-AMC (Enzo Lifesciences UK) to a final assay concentration of 100 μM in 4% DMSO. Release of AMC was measured using a Pherastar FS (BMG Labtech), excitation 360 nm, emission 460 nm. The rate of the linear phase of the reaction, typically 5 to 45 minutes, was calculated in MARS data analysis software (BMG labtech). The rate was then used to calculate the IC50 and Ki in Prism (GraphPad). A four parameter inhibition non-linear regression equation was used to calculate the IC50.
Peptides were dissolved as the TFA-salts in their powder form, and stock solutions were usually prepared in water. All solutions were centrifuged and filtered ([…] syringe filters) prior absorption measurement at 280 nm. Extinction coefficients were calculated based on the Trp/Tyr content of the peptide, and that of TMB (the TMB core, when contained in a peptide, has an ε of ˜300 M^−1cm^−1). For peptides containing non-natural amino acids with suspected chromophoric properties (i.e. NorHar, 4PhenylPro, 3Pal, 4Pal, Tic, 4GuanPhe, 4,4-BPAI, 3,3-DPA, 1NAI, 2NAI, 4BenzylPro, Ind) concentrations were determined by weighing the powder and dissolving the peptide in a defined quantity of water.

[1] = Plasma stability / fragment profiling Method #2 (MALDI-TOF, 95% plasma), human plasma; type: in vitro ADME; settings: for degradation / fragments in human plasma (in words): running text and figure legends
Method: To obtain stability data more rapidly, peptides were also assessed in 95% plasma. Here, PBS was omitted, and a 1 mM peptide stock (in DMSO) was directly diluted into plasma (i.e. 2.5 uL stock into 47.5 uL plasma), giving a final concentration of 50 uM. 5 uL samples were taken at appropriate time points and frozen at −80 deg C. For analysis, the samples were defrosted, mixed with 15 uL of 1:1 acetonitrile:methanol, and centrifuged at 13 k for 5 min. 5 uL of the peptide-containing supernatant was aspirated and mixed with 30 mM ammonium bicarbonate in a 1:1 mixture of acetonitrile:H2O. 1 uL of this was then spotted on the MALDI plate and analysed as described above. As above, it should be noted that this is a qualitative assay serves to detect relative changes in plasma stability.
Ac-06-34-18(TMB)-NH2 Phe2 Tyr4 (referred to as wild type peptide) was subsequently subjected to human plasma, and analysed for fragments to appear over time. This was compared to the degradation profile observed in human plasma using the NMe-Arg5 derivative of 06-34-18 (FIGS. 18a and 18b). Fragmentation was determined according to Method #2.

[2] = Table 24a, residue 6 modification in the context of Ac-(06-34-18) Phe2 Tyr4, read-out: Ki (nM) Ac-(06-34-18) Phe2 Tyr4
[3] = Table 26a, loop2 stability enhanced candidates
[4] = Table 26b, loop 1 and loop 2 modified derivatives, read-out: Ki (nM) (human kallikrein)
[5] = Table 26b, loop 1 and loop 2 modified derivatives

T1 sequence (P03952 20-638): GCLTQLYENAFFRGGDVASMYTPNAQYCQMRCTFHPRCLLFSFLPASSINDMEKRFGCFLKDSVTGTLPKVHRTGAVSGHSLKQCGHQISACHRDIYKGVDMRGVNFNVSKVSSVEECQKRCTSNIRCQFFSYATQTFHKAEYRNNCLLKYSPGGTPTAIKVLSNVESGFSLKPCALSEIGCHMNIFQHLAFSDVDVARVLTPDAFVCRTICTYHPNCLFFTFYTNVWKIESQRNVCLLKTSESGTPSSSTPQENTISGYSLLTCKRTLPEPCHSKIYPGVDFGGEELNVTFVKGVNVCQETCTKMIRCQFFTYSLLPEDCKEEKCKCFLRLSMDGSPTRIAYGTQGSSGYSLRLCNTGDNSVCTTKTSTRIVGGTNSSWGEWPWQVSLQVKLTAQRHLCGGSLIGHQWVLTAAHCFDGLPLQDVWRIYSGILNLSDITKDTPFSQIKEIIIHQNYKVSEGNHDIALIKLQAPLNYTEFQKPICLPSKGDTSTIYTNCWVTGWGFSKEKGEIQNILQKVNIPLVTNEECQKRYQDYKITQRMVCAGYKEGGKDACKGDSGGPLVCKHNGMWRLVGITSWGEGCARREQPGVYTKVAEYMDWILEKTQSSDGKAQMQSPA
T2 sequence (P14272 391-638 limits assumed): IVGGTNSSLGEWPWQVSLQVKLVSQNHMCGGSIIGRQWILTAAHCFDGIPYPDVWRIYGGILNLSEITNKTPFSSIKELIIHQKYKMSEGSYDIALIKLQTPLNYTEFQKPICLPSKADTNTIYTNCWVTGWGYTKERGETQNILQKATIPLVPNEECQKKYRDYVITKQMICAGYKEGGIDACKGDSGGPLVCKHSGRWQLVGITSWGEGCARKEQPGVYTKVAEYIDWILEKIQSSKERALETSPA

SMILES | Ki (human plasma Kallikrein; [2]) [nM] | Ki (rat plasma Kallikrein; [3]) [nM] | Ki (human plasma Kallikrein; [4]) [nM] | Ki (rat plasma Kallikrein; [5]) [nM] | further results
CC(=O)N[C@H]1CSCc2cc3cc(c2)CSC[C@H](NC(=O)[C@H](CCCNC(=N)N)NC(=O)[C@H](Cc2ccc(O)cc2)NC(=O)[C@@H]2CCCN2C(=O)[C@H](Cc2ccccc2)NC(=O)[C@H](CO)NC1=O)C(=O)N[C@@H](C(C)(C)C)C(=O)N[C@@H](Cc1c[nH]cn1)C(=O)N[C@@H](CCC(N)=O)C(=O)N[C@@H](CC(=O)O)C(=O)N[C@@H](CC(C)C)C(=O)N[C@H](C(N)=O)CSC3 [Ac-(06-34-18) Phe2 Tyr4 tBuGly6] (Ac-CSFPYRC[Tle]HQDLC-NH2; linker 1-7-13 via TBMB) | 3.76 | 218 | – | – | degradation / fragments in human plasma (in words) [1]: only removal of Arg5 in the first loop
CC(=O)N[C@H]1CSCc2cc3cc(c2)CSC[C@H](NC(=O)[C@H](CCCCNC(=N)N)NC(=O)[C@H](Cc2ccc(O)cc2)NC(=O)[C@@H]2CCN2C(=O)[C@H](Cc2ccccc2)NC(=O)[C@H](CO)NC1=O)C(=O)N[C@@H](c1ccccc1)C(=O)N[C@@H](Cc1c[nH]cn1)C(=O)N[C@@H](CCC(N)=O)C(=O)N[C@@H](CC(=O)O)C(=O)N[C@@H](CC(C)C)C(=O)N[C@H](C(N)=O)CSC3 [Ac-(06-34-18) Phe2 Aze3 Tyr4 HArg5 Phg6] (Ac-CSF[Aze]Y[hArg]C[Phg]HQDLC-NH2; linker 1-7-13 via TBMB) | – | – | 0.32 | 12 | –
CC(=O)N[C@H]1CSCc2cc3cc(c2)CSC[C@H](NC(=O)[C@H](CCCNC(=N)N)NC(=O)[C@H](Cc2ccc(O)cc2)NC(=O)[C@@H]2CCCN2C(=O)[C@H](Cc2ccccc2)NC(=O)[C@H](CO)NC1=O)C(=O)N[C@@H](CC(C)C)C(=O)N[C@@H](Cc1c[nH]cn1)C(=O)N[C@@H](CCC(N)=O)C(=O)N[C@H](CC(=O)O)C(=O)N[C@@H](CC(C)C)C(=O)N[C@H](C(N)=O)CSC3 [Ac-(06-34-18) Phe2 Tyr4 D-Asp9] (Ac-CSFPYRCLHQ[dD]LC-NH2; linker 1-7-13 via TBMB) | – | 32 | – | – | Fragments (human plasma) ([1]; Table 3b, peptide fragments observed after incubation in human plasma): -R, -FPYR; reduction in potency/affinity compared to wildtype (human plasma Kallikrein): 9 fold; Ki (human plasma Kallikrein; Table 3b, D-amino acid scan in Loop2, read-out: Ki): 3.89 nM; F (Kivar/KiWT) (human plasma Kallikrein; Table 3b, ratio of Ki to wild type): 9; Ki (human plasma Kallikrein; read-out: Ki / affinity to human Kallikrein): 4 nM
CC(=O)N[C@H]1CSCc2cc3cc(c2)CSC[C@H](NC(=O)[C@H](CCCCNC(=N)N)NC(=O)[C@H](Cc2ccc(O)cc2)NC(=O)[C@@H]2CCN2C(=O)[C@H](Cc2ccccc2)NC(=O)[C@H](CO)NC1=O)C(=O)N[C@@H](C)CN[C@@H](Cc1c[nH]cn1)C(=O)N[C@@H](CCC(N)=O)C(=O)N[C@@H](CC(=O)O)C(=O)N[C@@H](CC(C)C)C(=O)N[C@H](C(N)=O)CSC3 | – | – | 0.44 | 41 | –

Now from value to molecule, other results behind:

Ki (human plasma Kallikrein; [2]) [nM] | Ki (rat plasma Kallikrein; [3]) [nM] | Ki (human plasma Kallikrein; [4]) [nM] | Ki (rat plasma Kallikrein; [5]) [nM] | SMILES | further results
0.5 | 9.09 | – | – | CC(=O)N[C@H]1CSCc2cc3cc(c2)CSC[C@H](NC(=O)[C@H](CCCNC(=N)N)NC(=O)[C@H](Cc2ccc(O)cc2)NC(=O)[C@@H]2CCCN2C(=O)[C@H](Cc2ccccc2)NC(=O)[C@H](CO)NC1=O)C(=O)N[C@@H](C1CCCCC1)C(=O)N[C@@H](Cc1c[nH]cn1)C(=O)N[C@@H](CCC(N)=O)C(=O)N[C@@H](CC(=O)O)C(=O)N[C@@H](CC(C)C)C(=O)N[C@H](C(N)=O)CSC3 [Ac-(06-34-18) Phe2 Tyr4 Chg6] (Ac-CSFPYRC[Chg]HQDLC-NH2; linker 1-7-13 via TBMB) | –
0.3 | 7.23 | – | – | CC(=O)N[C@H]1CSCc2cc3cc(c2)CSC[C@H](NC(=O)[C@H](CCCNC(=N)N)NC(=O)[C@H](Cc2ccc(O)cc2)NC(=O)[C@@H]2CCCN2C(=O)[C@H](Cc2ccccc2)NC(=O)[C@H](CO)NC1=O)C(=O)N[C@@H](c1ccccc1)C(=O)N[C@@H](Cc1c[nH]cn1)C(=O)N[C@@H](CCC(N)=O)C(=O)N[C@@H](CC(=O)O)C(=O)N[C@@H](CC(C)C)C(=O)N[C@H](C(N)=O)CSC3 [Ac-(06-34-18) Phe2 Tyr4 Phg6] (Ac-CSFPYRC[Phg]HQDLC-NH2; linker 1-7-13 via TBMB) | –
– | – | 0.52 | 57 | CC(=O)N[C@H]1CSCc2cc3cc(c2)CSC[C@H](NC(=O)[C@H](CCCCNC(=N)N)NC(=O)[C@H](C)NC(=O)[C@@H]2CCN2C(=O)[C@H](Cc2c[nH]c4ccccc24)NC(=O)[C@H](CO)NC1=O)C(=O)N[C@@H](c1ccccc1)C(=O)N[C@@H](Cc1c[nH]cn1)C(=O)N[C@@H](CCC(N)=O)C(=O)N[C@@H](CC(=O)O)C(=O)N[C@@H](CC(C)C)C(=O)N[C@H](C(N)=O)CSC3 [Ac-(06-34-18) Aze3 HArg5 Phg6] (Ac-CSW[Aze]A[hArg]C[Phg]HQDLC-NH2; linker 1-7-13 via TBMB) | –
– | 43.6 | – | – | CC(=O)N[C@H]1CSCc2cc3cc(c2)CSC[C@H](NC(=O)[C@H](CCCNC(=N)N)NC(=O)[C@H](Cc2ccc(O)cc2)NC(=O)[C@@H]2CCCN2C(=O)[C@H](Cc2ccccc2)NC(=O)[C@H](CO)NC1=O)C(=O)N[C@@H](C)CN[C@@H](Cc1c[nH]cn1)C(=O)N[C@@H](CCC(N)=O)C(=O)N[C@@H](CC(=O)O)C(=O)N[C@@H](CC(C)C)C(=O)N[C@H](C(N)=O)CSC3 [Ac-(06-34-18) Phe2 Tyr4 Ala(ψCH2NH)6] | degradation / fragments in human plasma (in words) [1]: significantly enhanced stability in loop2; Kd (human plasma Kallikrein): 1.5 nM; F (Kivar/KiWT) (human plasma Kallikrein; Table 25b, fold change of Ki of variant compared to WT): 4; Ki (human plasma Kallikrein; Table 25b, peptide backbone modifications in Loop2, human plasma kallikrein, read-out: Ki): 1.47 nM
– | – | 1.91 | 193 | CC(=O)N[C@H]1CSCc2cc3cc(c2)CSC[C@H](NC(=O)[C@H](CCCNC(=N)N)NC(=O)[C@H](Cc2ccc(O)cc2)NC(=O)[C@@H]2CCN2C(=O)[C@H](Cc2ccccc2)NC(=O)[C@H](CO)NC1=O)C(=O)N[C@@H](C(C)(C)C)C(=O)N[C@@H](Cc1c[nH]cn1)C(=O)N[C@@H](CCC(N)=O)C(=O)N[C@@H](CC(=O)O)C(=O)N[C@@H](CC(C)C)C(=O)N[C@H](C(N)=O)CSC3 [Ac-(06-34-18) Phe2 Aze3 Tyr4 tBuGly6] (Ac-CSF[Aze]YRC[Tle]HQDLC-NH2; linker 1-7-13 via TBMB) | –
– | – | 1.65 | 23 | CC(=O)N[C@H]1CSCc2cc3cc(c2)CSC[C@H](NC(=O)[C@H](CCCCNC(=N)N)NC(=O)[C@H](Cc2ccc(O)cc2)NC(=O)[C@@H]2CCN2C(=O)[C@H](Cc2ccccc2)NC(=O)[C@H](CO)NC1=O)C(=O)N[C@@H](CC(C)C)C(=O)N[C@@H](Cc1c[nH]cn1)C(=O)N[C@@H](CCC(=O)O)C(=O)N[C@@H](CC(=O)O)C(=O)N[C@@H](CC(C)C)C(=O)N[C@H](C(N)=O)CSC3 [Ac-(06-34-18) Phe2 Aze3 Tyr4 HArg5 Glu8] (Ac-CSF[Aze]Y[hArg]CLHEDLC-NH2; linker 1-7-13 via TBMB) | –
